Experiments:
[1] = system: BFU-E; experiment: Colony formation assay (CFA), cord blood LDMNC: BFU-E colonies; assay type: cell-based, human; conditions: for BFU-E progenitor number, fold increase: 2 U/ml Epo, ambient O2, vs vehicle control; for fold increase in BFU-E at 5% O2: 5% O2, 2 U/ml Epo, relative to untreated controls at ambient O2; for fold increase in BFU-E at 5% O2 / fold increase in BFU-E number over untreated controls (no addition) at 0.2 U/ml Epo: 1.0 mg/ml HAo or HEMOLINK; for fold increase in BFU-E number over untreated controls (no addition) at 0.2 U/ml Epo: 250 μM FeCl3
Experimental: This technique, referred to as the colony formation assay (CFA), is the most widely used biological assay to identify and enumerate erythroid progenitors present in hematopoietic tissue such as blood and bone marrow. Cell populations containing erythroid progenitors are plated in semi-solid suspensions of methyl cellulose, agar, low melting agarose or related substances in nutrient culture medium containing 1-3 U/ml Epo and 10 ng/ml IL-3 to specifically stimulate erythroid progenitors. Plates are incubated at 37° C. for 14 days during which time the erythroid progenitors form characteristic hemoglobinized (red) colonies. Two distinct but related erythroid progenitors can be distinguished based on colony size and morphology: BFU-E, the most primitive recognizable erythroid progenitor forms large multilobular colonies whereas the more mature CFU-E forms smaller spherical colonies.
Adult hemoglobin was purified according to U.S Pat. Nos. 5,439,591 and 5,545,328 to obtain HAo and HEMOLINK™ was prepared from HAo according to U.S. Pat. No. 5,532,352. Human umbilical cord blood intended for discard was collected from the umbilical vein of placentas immediately postpartum into 10 ml vacutainer tubes containing 143 USP units/ml sodium heparin. Low density mononuclear cells were separated from red blood cells by centrifugation over a 1.077 g/ml density gradient Cells removed from the plasma/density gradient interface were incubated overnight in a tissue culture flask with 10 ml cell culture medium containing 10% fetal bovine serum, and non-adherent LDMNC were further purified with an additional density gradient step. The LDMNC were then plated into colony formation assays (CFA) on the second day of isolation. In the CFA, LDMNC were plated at a density of 1×10^5 cells/ml in Iscoves modified Dulbeccos cell culture medium containing 0.8% methyl-cellulose, 30% fetal bovine serum, 1% bovine serum albumin, 0.1 mM 2-mercaptoethanol and 2 mM L-glutamine. Unless indicated otherwise, under standard CFA conditions 2 U/ml Epo and 10 ng/ml IL-3 are added to the formulation to stimulate hematopoietic progenitor growth, specifically BFU-E, CFU-E and CFU-GM.
Each condition was tested in duplicate in from 2-18 independent experiments. Cultures were maintained in a humidified incubator at 37° C., 5% CO2 and ambient oxygen tensions. The number of hematopoietic progenitors was scored between days 13-15 by counting the number and types of colonies present.
Erythroid progenitor colony formation assays were conducted as described in Example 1 except that cultures were incubated at either ambient oxygen tensions (˜20% O2) or 5% O2. The reduced oxygen tension of 5% O2 approximates the physiological intravascular oxygen tension in mammals. The mean fold increase in cord blood BFU-E, CFU-E and CFU-GM progenitor number at 5% O2 produced by 1.0 mg/ml HAo (15.6 μM; n=11) or HEMOLINK™ (15.6 μM; n=6), 100 μM hemin (n=10), 250 μM FeCl3 (n=6) or no addition (n=17-18), is shown FIG. 2. Results are expressed relative to control cells treated only with respective vehicles and cultured at ambient oxygen tensions (˜20% O2; fold expansion=1.0; *p<0.05, **p<0.01).
Erythroid progenitor colony formation assays were conducted as described in Example 1 except that cultures were initiated in the presence of Epo concentrations ranging from 0-2 U/ml. The mean fold increase in cord blood BFU-E, CFU-E and CFU-GM progenitor number produced by 1.0 mg/ml HAo (15.6 μM; n=9) or HEMOLINK™ (15.6 μM; n=6), 100 μM hemin (n=8), 250 μM FeCl3 (n=6), or no addition (n=9-10) in the presence of reduced Epo concentrations (0.2 U/ml) is shown in FIG. 3. Cultures were maintained at ambient oxygen tensions (˜20% O2) for 14 days. Results are expressed relative to control cells at 2 U/ml Epo treated only with the respective vehicles (solid line at fold expansion=1.0; *p<0.05, **p<0 01). Erythroid progenitor colonies were undetectable in the absence of Epo. […]

[2] = system: BFU-E; experiment: as above; assay type: cell-based, human; conditions: 5% O2, 0.2 U/ml Epo; 100 μM hemin, 1.0 mg/ml HAo or HEMOLINK; relative to controls at 2 U/ml Epo, ambient O2

Compound | BFU-E progenitor number, fold increase ([1]; dose 1.0 μM) [fold] | BFU-E progenitor number, fold increase ([1]; dose 10 μM) [fold] | BFU-E progenitor number, fold increase ([1]; dose 250 μM) | BFU-E number at 0.2 U/ml Epo compared with untreated controls at 2 U/ml Epo ([1]; 0.2 U/ml Epo, ambient O2, 100 μM hemin) | fold increase in BFU-E at 5% O2 ([1]; 100 μM hemin) [fold] | fold increase in BFU-E at 0.2 U/ml Epo and 5% O2 [2] [fold] | fold increase in BFU-E number over untreated controls (no addition) at 0.2 U/ml Epo ([1]; 0.2 U/ml Epo, ambient O2) [fold] | BFU-E progenitor number, fold increase ([1]; dose 10 μg/ml) [fold] | BFU-E progenitor number, fold increase ([1]; dose 100 μg/ml) [fold] | BFU-E progenitor number, fold increase ([1]; dose 500 μg/ml) | reduction of toxicity of ganciclovir to BFU-E ([1]; 1 mg/ml HEMOLINK plus 0-100 μM ganciclovir)
[Cl][Fe]([Cl])[Cl] [FeCl3] | 1.2 | 1.4 | *1.7 fold | – | – | – | – | – | – | – | –
C=CC1=C(C)C2=Cc3c(C=C)c(C)c4[n]3[Fe-2]35([Cl])[n]6c(c(C)c(CCC(=O)O)c6=CC6=[N+]3C(=C4)C(C)=C6CCC(=O)O)=CC1=[N+]25 [hemin] | 0.9 | 1.5 | 2.2 fold | generated the same number of BFU-E as the untreated controls at 2 U/ml Epo | ~8 | 4 | – | – | – | – | –
HAo: adult human hemoglobin obtained from red blood cells and purified by displacement chromatography; uncross linked product | – | – | – | – | ~8 | 3.3 | 3 | 1.1 | 1.3 | **1.7 fold | –
HEMOLINK™: chemically crosslinked hemoglobin prepared by treating human hemoglobin with a polyaldehyde (O-raffinose) | – | – | – | – | ~8 | 2.6 | 3 | – | – | – | about 10 fold
